Experimental findings from patent publication US8987193B2, “Nisin derivatives and the use thereof” (University College Cork—National University of Ireland, Cork, priority 2008, dated 2015) are described below.

Ends that are not written are not given here.

This test concerns C. sporogenes CBC5. Nature of the test: Deferred antagonism assay. The format is cell-based, Clostridium sporogenes. Also on record: key: + = Enhanced bioactivity relative to control; − = Bioactivity equal to or less than control; NA = no activity evident. Particulars: XX and XXX hinge mutant producers.
As for NisinA GVK, the “bioactivity relative to a nisin A-producing control” value is reported as “−”. Consider NisinA PSL, for which the “bioactivity relative to a nisin A-producing control” value is on record as “−”. “NisinA GLA (ITSISLCTPGCKTGALMGCGLATATCHCSIHVSK; cysteine pairing not given here; also: lantibiotic nisin-A; UniProt P13068 24-57, looked up, variant N20G M21L K22A) [nisin A hinge variant GLA (i.e. N20G, M21L, K22A)]”: the “bioactivity relative to a nisin A-producing control” value is listed as “−”.

“NisinA HLT (ITSISLCTPGCKTGALMGCHLTTATCHCSIHVSK; cysteine pairing not given here; also: lantibiotic nisin-A; UniProt P13068 24-57, looked up, variant N20H M21L K22T) [nisin A hinge variant HLT (i.e. N20H, M21L, K22T)]”: the “bioactivity relative to a nisin A-producing control” value was “−”. For “NisinA PAL (ITSISLCTPGCKTGALMGCPALTATCHCSIHVSK; not fully specified (bridges); also: lantibiotic nisin-A: lanthionine rings and dehydrated residues, places not given here; UniProt P13068 24-57, looked up, variant N20P M21A K22L) [nisin A hinge variant PAL (i.e. N20P, M21A, K22L)]”, the “bioactivity relative to a nisin A-producing control” value is recorded as “−”. For “NisinA PLA (ITSISLCTPGCKTGALMGCPLATATCHCSIHVSK; not fully specified (bridges); also: lantibiotic nisin-A: lanthionine rings and dehydrated residues, places not given here; UniProt P13068 24-57, looked up, variant N20P M21L K22A) [nisin A hinge variant PLA (i.e. N20P, M21L, K22A)]”, the “bioactivity relative to a nisin A-producing control” value is given as “−”. In the case of “NisinA PTL (ITSISLCTPGCKTGALMGCPTLTATCHCSIHVSK; thioether (positions not given here); not fully specified (residues 2, 5, 33, bridges); also: lantibiotic nisin A, thioether rings and dehydro residues not given here; UniProt P13068 24-57, looked up, variant N20P M21T K22L) [nisin A hinge variant PTL (i.e. N20P, M21T, K22L)]”, the “bioactivity relative to a nisin A-producing control” value is recorded as “−”. In the case of “NisinA SVA (ITSISLCTPGCKTGALMGCSVATATCHCSIHVSK; not fully specified (bridges); also: lantibiotic nisin-A: lanthionine rings and dehydrated residues, places not given here; UniProt P13068 24-57, looked up, variant N20S M21V K22A) [nisin A hinge variant SVA (i.e. N20S, M21V, K22A)]”, the “bioactivity relative to a nisin A-producing control” value was “−”. For the substance NisinA PAA, the “bioactivity relative to a nisin A-producing control” value was “−”.

For NisinA PMM, the “bioactivity relative to a nisin A-producing control” value is given as “−”. Turning to NisinA PMC, the “bioactivity relative to a nisin A-producing control” value is recorded as “−”. With NisinA PMT, the “bioactivity relative to a nisin A-producing control” value is given as “−”. Under “NisinA PAT (ITSISLCTPGCKTGALMGCPATTATCHCSIHVSK; not fully specified (bridges); also: lantibiotic nisin-A: lanthionine rings and dehydrated residues, places not given here; UniProt P13068 24-57, looked up, variant N20P M21A K22T) [nisin A hinge variant PAT (i.e. N20P, M21A, K22T)]” stands “−”; under NisinA PIM, “−”. To NisinA PMQ belongs “−”; to “NisinA PNR (ITSISLCTPGCKTGALMGCPNRTATCHCSIHVSK; not fully specified (bridges); also: lantibiotic nisin-A: lanthionine rings and dehydrated residues, places not given here; UniProt P13068 24-57, looked up, variant N20P M21N K22R) [nisin A hinge variant PNR (i.e. N20P, M21N, K22R)]”, “−”. As for NisinA PML, the “bioactivity relative to a nisin A-producing control” value was “−”. For the substance “NisinA QLT (ITSISLCTPGCKTGALMGCQLTTATCHCSIHVSK; not fully specified (bridges); also: lantibiotic nisin-A: lanthionine rings and dehydrated residues, places not given here; UniProt P13068 24-57, looked up, variant N20Q M21L K22T) [nisin A hinge variant QLT (i.e. N20Q, M21L, K22T)]”, the “bioactivity relative to a nisin A-producing control” value was “−”.

For the substance NisinA PTA, the “bioactivity relative to a nisin A-producing control” value was “−”. To NisinA PIA belongs “−”; to NisinA PAK, “−”.
